Data taken from patent publication US8785396B2, “Method and composition for treating migraines” (Mannkind Corporation, priority 2007, dated 2014).

Legend:
[1] = Sumatriptan pharmacokinetics in female Sprague Dawley rats; settings: rat, in vivo, 0.358 mg
[2] = tested on: ZDF rats; assay: Intraperitoneal glucose tolerance test (IPGTT) in ZDF rats (exendin-4); assay type: in vivo, rat; settings: subcutaneous injection
Excerpt: After an overnight fast, ZDF rats were given a glucose challenge by intraperitoneal injection (IPGTT).

[3] = tested on: patients with Type 2 diabetes; assay: Phase 1 clinical trial of GLP-1/FDKP inhalation powder in fasted Type 2 diabetes patients: serum glucose; assay type: in vivo, human; settings: 1.5 mg GLP-1 inhaled; attained by the 30 min time point
Description: […]. These studies were conducted according to Example 1 and as described herein. […]. No. 11/735,957, which disclosure is incorporated herein by reference. […].
[…]. The serum glucose levels were analyzed for each sample.

[4] = tested on: patients diagnosed with type 2 diabetes; assay: Meal challenge study in type 2 diabetes patients: GLP-1 levels, insulin, glucose, gastric emptying; assay type: in vivo, human
Description: Experimental Design: The study was divided into two periods and enrolled 20 patients diagnosed with type 2 diabetes ranging in age from 20 to 64 years of age. […] Period 2 was performed after completion of Period 1. […] The results of this study are depicted in FIGS. 18-20.

[5] = tested on: healthy adult male subjects; assay: Phase 1a clinical trial: insulin, glucose and glucagon response after inhaled GLP-1; assay type: in vivo, human
Description: GLP-1/FDKP inhalation powder was administered using the MedTone® Inhaler device, previously tested. The experiments were designed to identify the safety and tolerability of various doses of GLP-1/FDKP inhalation powder by pulmonary inhalation.
Dropouts were not replaced. These dosages assumed a body mass of 70 kg.

[6] = tested on: Male ZDF rats; assay: Cumulative food consumption in male ZDF rats (oxyntomodulin); assay type: in vivo, rat; settings: 30% oxyntomodulin/FDKP powder by pulmonary insufflation, fasted ZDF rats
Description: Male ZDF rats (10/group) were assigned to one of four groups.
Rats were allowed to eat after receiving the experimental dose. A predetermined amount of food was given to the rats and the amount of food the rats consumed was measured at various times after the start of the experiment.

[7] = tested on: Female ZDF rats; assay: Food consumption in female ZDF rats (PYY); assay type: in vivo, rat; settings: Group 1: 0.6 mg IV
Description: (§1) Pharmacokinetic and pharmacodynamic studies: Female ZDF rats were used in these experiments and divided into 7 groups; five rats were assigned to each group, except for Group 1 which had 3 rats.

[8] = tested on: Female ZDF rats; assay: Blood glucose in female ZDF rats (PYY); assay type: in vivo, rat; settings: Group 1: PYY IV
Description: as §1

## CNS(=O)(=O)Cc1ccc2[nH]cc(CCN(C)C)c2c1 [Sumatriptan, sumatriptan]
[1]; iv
  bioavailability: 100%
[1]; sc
  bioavailability: 36.4%

## exenatide
[2]
  time blood glucose was significantly lowered following IPGTT versus air control: 30 min

## glucagon-like peptide 1 [GLP-1]
[3]
  mean glucose drop: approximately 1 mmol/L
[4]; GLP-1 dry powder comprising FDKP, fed and fasted groups
  insulin response: more significant
[4]; GLP-1 dry powder formulation
  blood glucose after meal challenge: delayed rise in blood glucose and reduced overall exposure (AUC) to glucose
[5]; 1.5 mg GLP-1 inhaled
  decrease in plasma glucose in two of the six subjects: more than 1.5 mol/L
[5]; 1.5 mg GLP-1 inhaled, reduced from 85
  mean fasting plasma glucose 20 min after dosing: 70 mg/dL
[5]; 1.5 mg dose group
  largest decrease in plasma glucagon: approximately 2.5 pmol/L
[5]; after dosing, inhaled GLP-1
  time of maximum change in plasma glucagon: 12 min
[5]; inhaled GLP-1
  peak plasma insulin levels in one subject: exceeded 700 pmol/L
[5]; inhaled GLP-1, dose groups 0.05-1.5 mg
  peak plasma insulin response in most subjects: 200 to 400 pmol/L

## oxyntomodulin
[6]
  time after dosing with significantly less food consumed than control rats: up to 6 hr

## peptide YY(3-36) [PYY]
[7]
  food consumption: relatively effective in reducing food consumption
[8]
  time after dosing up to which blood glucose level was lower than in the other rats: about 15 min
